Measured values as given in patent US10765669B2, “Pharmaceutical composition for preventing or treating DYRK-related diseases, containing pyridine-based compound as active ingredient” (KOREA RESEARCH INSTITUTE OF BIOSCIENCE AND BIOTECHNOLOGY, priority 2016, dated 2020).

How the values were obtained:
DYRK1A [1] = biological target: T1, DYRK1A (Homo sapiens, UniProt Q13627); test: NFAT signaling reporter (NFAT-RE-luciferase), cell-based DYRK1A efficacy evaluation in 293T cells; conditions: for luciferase increase effect / activity level compared with harmine and CX-4945: 10 μM; for luciferase increase effect: 293T cells, NFAT-RE-luciferase reporter, IM + PMA, DYRK1A overexpressed, among 570 candidates; for activity level compared with harmine and CX-4945: same reporter conditions; for EC50 of luciferase increase effect, fold lower than harmine and CX-4945: NFAT reporter, concentration gradient (FIG. 4); for luciferase activity compared with condition without DYRK1A overexpression: treated with 3 μM, concentration gradient, same conditions
T1 construct: expressed in transfected cells; host or cells: 293T
Method: With respect to the 570 compounds identified as candidate DYRK1A inhibitors through the virtual screening, a secondary effect evaluation was carried out using NFAT signaling reporter which is the already well-established cell-based DYRK1A effect evaluation system (FIG. 3). NFAT signaling reporter has a very high level of dependence on DYRK1A, and thus is effective in the identifying experiment of the proper candidate DYRK1A inhibitors. DYRK1A is known to regulate calcineurin/Nuclear Factor of Activated T cells (NFAT) signals and play an important role in the stage of human development process. NFATc1 transcription factor is usually present as a protein that is phosphorylated in the cytoplasm when the Ca^2+ concentration of the cells is increased, NFATc1 is dephosphorylated by calcineurin phosphatase which is a Ca^2+-dependent protein, and NFATc1 is moved into the nucleus. NFATc1 which has entered into the nucleus and protein partner NFATn form a transcription complex, and the complex binds to the promoter of the target gene to induce the target gene expression. In contrast, DYRK1A phosphorylates NFATc1 to inhibit the movement of NFATc1 into the nucleus, and results in the inhibition of the expression of the target gene. The DYRK1A-inhibitory effect of the 570 candidates was confirmed through the transcription activity of NFATc1, and for this, a luciferase reporter containing NFAT response element (NFAT-RE) useful to measure the transcription activity of NFATc1 was used. A NFAT-RE-luciferase reporter was over-expressed in 293T cells, and was then treated with Ionomycin (IM) and phorbol 12-myristate 13-acetate (PMA) to increase the intracellular concentration of Ca^2+. As a result, the expression of luciferase was increased sharply. […] If the candidate drug treatment in this condition inhibits DYRK1A, the luciferase will be increased.

DYRK1A [2] = biological target: T1, DYRK1A; test: In vitro kinase assay with separated and purified DYRK1A protein; assay type: biochemical
GSK3β = GSK3β (Homo sapiens, UniProt P49841); test: In vitro CMGC kinase assay, GSK3β; assay type: biochemical; conditions: in vitro kinase panel; next to DYRK1A
Sequence of GSK3β (P49841 whole entry, species assumed): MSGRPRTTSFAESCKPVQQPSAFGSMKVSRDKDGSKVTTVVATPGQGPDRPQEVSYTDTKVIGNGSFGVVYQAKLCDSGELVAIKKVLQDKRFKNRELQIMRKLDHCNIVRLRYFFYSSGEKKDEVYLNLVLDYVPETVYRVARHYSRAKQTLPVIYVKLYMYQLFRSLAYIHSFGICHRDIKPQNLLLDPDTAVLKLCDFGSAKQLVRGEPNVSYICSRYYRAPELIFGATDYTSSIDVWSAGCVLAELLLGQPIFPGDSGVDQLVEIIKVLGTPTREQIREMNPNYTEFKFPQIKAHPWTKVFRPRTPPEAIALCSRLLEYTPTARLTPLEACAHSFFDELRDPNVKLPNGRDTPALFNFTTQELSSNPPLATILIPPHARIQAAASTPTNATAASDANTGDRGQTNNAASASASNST

DYRK1A [3] = biological target: T1, DYRK1A; test: Inhibition of Tau protein (Thr212) phosphorylation in 293T cells overexpressing Tau and DYRK1A; assay type: cell-based; conditions: for IC50: 293T cells overexpressing Tau and DYRK1A
C-met kinase = C-met kinase (Homo sapiens, UniProt P08581); conditions: existing studies; ATP competitive manner; cited from earlier work
Sequence of C-met kinase (P08581 25-1390): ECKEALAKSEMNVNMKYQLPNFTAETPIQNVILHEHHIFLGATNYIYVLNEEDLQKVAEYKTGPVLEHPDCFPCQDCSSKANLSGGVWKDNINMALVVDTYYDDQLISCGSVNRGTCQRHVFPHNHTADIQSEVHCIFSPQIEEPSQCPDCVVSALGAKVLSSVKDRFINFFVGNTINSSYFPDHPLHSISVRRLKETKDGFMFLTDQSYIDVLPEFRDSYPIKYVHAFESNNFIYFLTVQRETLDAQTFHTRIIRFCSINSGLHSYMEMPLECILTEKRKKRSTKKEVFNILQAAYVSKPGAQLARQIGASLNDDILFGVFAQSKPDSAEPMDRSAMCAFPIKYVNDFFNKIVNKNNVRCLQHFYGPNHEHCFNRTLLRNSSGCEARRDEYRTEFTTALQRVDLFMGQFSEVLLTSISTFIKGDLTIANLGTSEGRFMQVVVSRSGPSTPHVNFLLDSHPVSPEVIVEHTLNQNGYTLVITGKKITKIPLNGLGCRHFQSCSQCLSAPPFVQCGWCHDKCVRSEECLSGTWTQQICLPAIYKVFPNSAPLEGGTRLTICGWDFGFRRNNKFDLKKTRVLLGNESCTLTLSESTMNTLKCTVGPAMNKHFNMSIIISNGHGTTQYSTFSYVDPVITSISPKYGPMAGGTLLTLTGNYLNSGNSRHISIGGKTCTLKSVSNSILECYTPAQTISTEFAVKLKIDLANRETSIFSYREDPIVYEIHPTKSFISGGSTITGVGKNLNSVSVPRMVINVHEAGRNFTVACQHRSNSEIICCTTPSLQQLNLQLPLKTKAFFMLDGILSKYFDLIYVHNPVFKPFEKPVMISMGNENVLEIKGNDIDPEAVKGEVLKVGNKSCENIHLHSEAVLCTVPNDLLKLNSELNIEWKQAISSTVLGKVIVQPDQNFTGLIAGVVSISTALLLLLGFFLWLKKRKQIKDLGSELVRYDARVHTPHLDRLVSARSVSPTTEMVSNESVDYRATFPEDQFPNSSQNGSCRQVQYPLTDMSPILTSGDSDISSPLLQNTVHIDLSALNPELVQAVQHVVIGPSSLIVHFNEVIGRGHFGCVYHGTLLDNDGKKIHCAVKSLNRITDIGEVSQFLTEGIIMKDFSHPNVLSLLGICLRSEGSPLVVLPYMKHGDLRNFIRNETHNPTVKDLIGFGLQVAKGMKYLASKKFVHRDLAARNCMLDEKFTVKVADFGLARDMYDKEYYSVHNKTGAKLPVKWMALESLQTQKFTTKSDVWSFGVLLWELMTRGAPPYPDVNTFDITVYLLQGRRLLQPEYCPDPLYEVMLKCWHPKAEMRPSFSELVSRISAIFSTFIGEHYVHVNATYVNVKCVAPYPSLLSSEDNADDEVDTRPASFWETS

Row | luciferase increase effect (DYRK1A [1]) | activity level compared with harmine and CX-4945 (DYRK1A [1]) | EC50 of luciferase increase effect, fold lower than harmine and CX-4945 (DYRK1A [1]) | inhibition at 0.1 µM (DYRK1A [2]; 100 nM concentration, read-out: inhibitory effect on DYRK1A) | rank of inhibitory effect among DYRK family and CMGC kinases (DYRK1A [2]; in vitro kinase panel (FIG. 6)) | IC50 (DYRK1A [2]; predicted from inhibition at 100 nM) | inhibitory effect on GSK3β (GSK3β) | IC50 (DYRK1A [3]) | inhibitory effect on Tau phosphorylation, times stronger than harmine, INDY and proINDY (DYRK1A [3]; same experimental conditions) | Structure (SMILES) | luciferase activity compared with condition without DYRK1A overexpression (DYRK1A [1]) | C-met kinase inhibition (C-met kinase)
1 | highest luciferase increase effect | clearly higher | 10 times | ~95% | strongest inhibitory effect on DYRK1A | ~0.01 µM | high inhibitory effect | ~0.05 µM | 10-60 times | CC(=O)N1CCC(n2cc(-c3cnc(N)c(-c4nc5cnccc5o4)c3)cn2)CC1 [formula 2] | higher than the luciferase activity of the condition that DYRK1A was not overexpressed | inhibitors of the C-met kinase
2 | highest luciferase increase effect | clearly higher | 10 times | – | – | – | – | – | – | Nc1ncc(-c2cnn(C3CCNCC3)c2)cc1-c1nc2cnccc2o1 [formula 3] | higher than the luciferase activity of the condition that DYRK1A was not overexpressed | inhibitors of the C-met kinase
3 | highest luciferase increase effect | clearly higher | – | – | – | – | – | – | – | Cn1cc(-c2cnc(N)c(-c3nc4cnccc4o3)c2)cn1 [formula 4] | – | –
4 | – | – | – | – | – | – | – | ~3 µM | – | CCN1/C(=C/C(C)=O)Sc2ccc(OC(C)=O)cc21 [proINDY, reference compound] | – | –
